In patent US10669272B2, “Substituted naphthyridinone compounds useful as T cell activators” (BRISTOL-MYERS SQUIBB COMPANY, priority 2018, dated 2020):
Where two headings read alike, the source gives them in different places.

Experiments:
[1] = test system: OT-1 CD8+ T cells with SIINFEKL-loaded MC38 tumor cells; assay: Murine cytotoxic T lymphocyte assay (IFN-γ, OT-1 CTL with MC38 tumor cells); format: cell-based, mouse; details: read-out: msCTL INFg IC50
In short: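 OT-1 CD8+ T cells, expanded 5 days with OVA peptide (1 μg/mL) and mIL2, pretreated 1 h with DGK inhibitors, then co-cultured overnight at 37° C at 1:10 with MC38 cells pulsed 3 h with 1 μg/mL SIINFEKL. IFN-γ in 24 h supernatant by AlphaLISA.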

[2] = target: T1, human DGKα (Homo sapiens, UniProt P23743); assay: DGKα LIPGLO assay (extruded liposome substrate), in vitro DGK inhibition; format: biochemical; details: liposome (LIPGLO) assay; read-out: DGKa LIPGLO IC50
T1 construct: TVMV protease cleavage site (C); Hexa-His (C); made in house; host or cells: Sf9 insect cells (baculovirus, Bac-to-Bac)

[3] = test system: Human venous whole blood; assay: Human whole blood IFN-γ assay; format: cell-based; details: human whole blood, normalized to 3 μM reference compound with anti-CD3 plus anti-CD28 as 100% activation, read-out: INFg Whole Blood Normalized Agonist EC50;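 further: blood from healthy donors exposed to compound for 1 h before stimulation with anti-CD3 and anti-CD28 at 1 µg/mL each, IFN-γ quantified in supernatant by AlphaLISA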
Protocol: Human Whole Blood IFN-γ Assay
Human venous whole blood (22.5 μL per well), obtained from healthy donors, was pre-treated with compounds for one hour at 37° C. in a humidified 95% air/5% CO2 incubator. The blood was stimulated with 2.5 μL anti-human CD3 and anti-CD28 mAb at a final concentration of 1 μg/mL each for 24 hours at 37° C. IFN-γ in the supernatants was measured using AlphLISA kit (Cat # AL217).

[4] = test system: naïve human CD8 T cells; assay: Human CD8 T cells IFN-γ assay; format: cell-based; details: normalized to 3 μM reference compound with anti-CD3 plus anti-CD28 as 100% activation, read-out: HuCD8 INFG Normalized EC50;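 further: Naïve human CD8 T cells stimulated with plate-bound anti-CD3 and soluble anti-CD28, IFN-γ in supernatant quantified by AlphaLISA and converted to pg/mL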
Protocol: Human CD8 T Cells IFN-γ Assay
Frozen naïve human CD8 T cells were thawed in AIM-V media, incubated for 2 h in 37° C., and counted. The 384-well tissue culture plate was coated overnight at 4° C. with 20 μL anti-human CD3 at 0.05 μg/mL in PBS, which was removed off the plate before 40,000 cells per 40 microliters CD8 T cells with 0.1 μg/mL soluble anti-human CD28 were added to each well. The compounds were transferred using an Echo liquid handler to the cell plate immediately after the cells were plated. After 20 h incubation at 37° C. incubator, 3 microliters per well supernatants transferred into a new 384-well white assay plate for cytokine measurement.
Interferon-γ (IFN-γ) was quantitated using the AlphLISA kit (Cat # AL217) as described by the manufacturer manual (Perkin Elmer). The counts from each well were converted to IFN-γ concentration (pg/mL).

[5] = target: T2, human DGKζ (Homo sapiens, UniProt Q13574); assay: DGKζ LIPGLO assay (extruded liposome substrate), in vitro DGK inhibition; format: biochemical; details: liposome (LIPGLO) assay; read-out: DGKz LIPGLO IC50
T2 construct: TVMV protease cleavage site (C); Hexa-His (C); made in house; host or cells: Sf9 insect cells (baculovirus, Bac-to-Bac)
T2 sequence (Q13574 with tags, fused parts or gaps isoform Q13574-4): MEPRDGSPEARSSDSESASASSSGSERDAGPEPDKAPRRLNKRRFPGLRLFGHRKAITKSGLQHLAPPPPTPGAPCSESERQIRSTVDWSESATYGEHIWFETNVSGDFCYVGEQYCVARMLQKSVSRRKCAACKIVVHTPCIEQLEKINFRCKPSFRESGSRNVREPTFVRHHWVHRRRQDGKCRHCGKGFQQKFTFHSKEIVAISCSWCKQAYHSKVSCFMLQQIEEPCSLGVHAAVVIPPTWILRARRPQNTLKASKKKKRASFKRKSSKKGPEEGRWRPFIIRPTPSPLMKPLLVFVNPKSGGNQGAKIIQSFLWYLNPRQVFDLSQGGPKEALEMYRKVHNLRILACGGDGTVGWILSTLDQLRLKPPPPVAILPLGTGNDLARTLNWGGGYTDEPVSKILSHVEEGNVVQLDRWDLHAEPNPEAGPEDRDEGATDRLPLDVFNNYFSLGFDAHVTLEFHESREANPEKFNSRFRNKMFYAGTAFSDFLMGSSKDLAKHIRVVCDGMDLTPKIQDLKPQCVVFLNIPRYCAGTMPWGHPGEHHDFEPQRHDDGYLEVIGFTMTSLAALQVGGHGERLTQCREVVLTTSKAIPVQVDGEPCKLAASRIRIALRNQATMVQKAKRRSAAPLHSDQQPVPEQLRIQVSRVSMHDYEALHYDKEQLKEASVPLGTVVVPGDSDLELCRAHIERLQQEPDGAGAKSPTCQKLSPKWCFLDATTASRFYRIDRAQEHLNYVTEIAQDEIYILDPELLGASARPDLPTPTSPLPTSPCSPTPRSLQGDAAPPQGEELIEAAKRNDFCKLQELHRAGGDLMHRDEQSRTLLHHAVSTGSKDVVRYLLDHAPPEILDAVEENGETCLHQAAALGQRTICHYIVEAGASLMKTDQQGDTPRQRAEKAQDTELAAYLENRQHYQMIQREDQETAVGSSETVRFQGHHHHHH

T1 sequence (P23743 with tags, fused parts or gaps): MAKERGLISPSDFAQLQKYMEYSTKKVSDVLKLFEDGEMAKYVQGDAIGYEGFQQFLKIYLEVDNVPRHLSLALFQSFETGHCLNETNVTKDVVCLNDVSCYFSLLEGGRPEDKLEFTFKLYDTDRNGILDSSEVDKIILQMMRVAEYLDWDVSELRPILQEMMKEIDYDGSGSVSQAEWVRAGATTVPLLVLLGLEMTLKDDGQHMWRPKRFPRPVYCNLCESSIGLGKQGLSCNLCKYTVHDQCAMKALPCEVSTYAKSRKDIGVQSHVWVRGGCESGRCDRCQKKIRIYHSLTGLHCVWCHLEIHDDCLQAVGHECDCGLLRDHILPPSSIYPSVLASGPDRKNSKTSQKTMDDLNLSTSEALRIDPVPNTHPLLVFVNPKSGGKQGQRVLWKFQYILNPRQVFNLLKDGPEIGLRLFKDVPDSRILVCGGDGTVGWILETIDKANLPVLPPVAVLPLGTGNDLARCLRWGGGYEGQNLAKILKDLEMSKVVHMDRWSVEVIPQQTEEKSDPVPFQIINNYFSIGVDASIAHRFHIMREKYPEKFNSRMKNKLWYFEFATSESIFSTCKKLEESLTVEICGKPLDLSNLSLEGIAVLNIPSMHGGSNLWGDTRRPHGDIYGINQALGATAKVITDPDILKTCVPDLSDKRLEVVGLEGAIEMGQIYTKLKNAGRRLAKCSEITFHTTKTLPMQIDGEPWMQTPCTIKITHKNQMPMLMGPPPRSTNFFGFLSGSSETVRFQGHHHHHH

Row | SMILES | IC50 [1] [µM] | IC50 [2] [µM] | EC50 [3] [µM] | EC50 [4] [µM] | IC50 [5] [µM] | IC50 ([1]; Mus musculus, MC-38) [µM] | EC50 ([3]; Homo sapiens) [µM] | EC50 ([4]; Homo sapiens, T-cell, 20 h) [µM] | EC50 ([3]; Homo sapiens, 24 h) [µM]
1 | COc1cc(F)ccc1C(c1ccc(F)cc1)N1C[C@H](C)N(c2cc(=O)n(C)c3ccc(C#N)nc23)C[C@H]1C (single isomer, unassigned) [Example 119] | 6.3 | 29 | 5.1 | 0.61 | 1.7 | – | – | – | –
2 | COC(=O)C1CN(c2cc(=O)n(C)c3ccc(C#N)nc23)CCN1C(c1ccc(F)cc1)c1ccc(F)cc1 (single isomer, unassigned) [Example 40, Methyl 1-(bis(4-fluorophenyl)methyl)-4-(6-cyano-1-methyl-2-oxo-1,2-dihydro-1,5-naphthyridin-4-yl)piperazine-2-carboxylate] | 0.071 | 1.2 | 0.78 | 0.028 | 0.63 | – | – | – | –
3 | Cc1ccc(C(c2ccc(C)cc2)N2C[C@H](C)N(c3cc(=O)n(C)c4ccc(C#N)nc34)C[C@H]2C)cc1 [Example 301, 8-[(2S,5R)-4-[bis(4-methylphenyl)methyl]-2,5-dimethylpiperazin-1-yl]-5-methyl-6-oxo-5,6-dihydro-1,5-naphthyridine-2-carbonitrile] | – | 1.5 | – | – | 0.87 | 0.072 | 0.52 | 0.0095 | –
4 | Cc1c(N2C[C@@H](C)N(C(c3ccc(F)cc3)c3ccc(F)cc3)C[C@@H]2C)c2nc(C#N)ccc2n(C)c1=O [Example 22, 8-((2S,5R)-4-(bis(4-fluorophenyl)methyl)-2,5-dimethylpiperazin-1-yl)-5,7-dimethyl-6-oxo-5,6-dihydro-1,5-naphthyridine-2-carbonitrile] | – | 44 | – | – | 37 | 10 | – | 10 | 20
5 | COC(=O)C1CN(c2c(C#N)c(=O)n(C)c3ccc(C#N)nc23)CCN1C(c1ccc(F)cc1)c1ccc(F)cc1 (single isomer, unassigned) [Example 50, methyl 1-(bis(4-fluorophenyl)methyl)-4-(3,6-dicyano-1-methyl-2-oxo-1,2-dihydro-1,5-naphthyridin-4-yl)piperazine-2-carboxylate] | 0.15 | 2.2 | – | 0.072 | 0.75 | – | – | – | 1.5
6 | C[C@@H]1CN(c2c(C3CC3)c(=O)n(C)c3ccc(C#N)nc23)[C@@H](C)CN1C(c1ccc(F)cc1)c1ccc(F)cc1 [Example 20, 8-((2S,5R)-4-(bis(4-fluorophenyl)methyl)-2,5-dimethylpiperazin-1-yl)-7-cyclopropyl-5-methyl-6-oxo-5,6-dihydro-1,5-naphthyridine-2-carbonitrile] | – | 95 | – | – | 130 | 10 | – | 10 | 20
7 | C[C@@H]1CN(c2c(C#N)c(=O)n(C)c3cccnc23)[C@@H](C)CN1C(c1ccc(F)cc1)c1ccc(F)cc1 [Example 160, 4-((2S,5R)-4-(bis(4-fluorophenyl)methyl)-2,5-dimethylpiperazin-1-yl)-1-methyl-2-oxo-1,2-dihydro-1,5-naphthyridine-3-carbonitrile] | – | 2.4 | – | – | 44 | 10 | – | 10 | 20
8 | Cn1c(=O)cc(N2CCN(C(c3ccc(F)cc3)c3ccc(F)cc3)C(CO)C2)c2nc(C#N)ccc21 (single isomer, unassigned) [Example 1, 8-(4-(bis(4-fluorophenyl)methyl)-3-(hydroxymethyl)piperazin-1-yl)-5-methyl-6-oxo-5,6-dihydro-1,5-naphthyridine-2-carbonitrile] | 0.23 | 3 | 0.82 | 0.096 | 0.48 | – | – | – | –
9 | Cn1c(=O)cc(N2CCN(C(c3ccc(F)cc3)c3ccc(F)cc3)C(C#N)C2)c2nc(C#N)ccc21 (single isomer, unassigned) [Example 44, 8-(4-(bis(4-fluorophenyl)methyl)-3-cyanopiperazin-1-yl)-5-methyl-6-oxo-5,6-dihydro-1,5-naphthyridine-2-carbonitrile] | – | 2.9 | – | – | 5.5 | 0.59 | – | 0.46 | 3.9
10 | Cn1c(=O)cc(N2CCN(C(c3ccc(F)cc3)c3ccc(F)cc3)C(C(C)(C)F)C2)c2nc(C#N)ccc21 (single isomer, unassigned) [Example 81, 8-(4-(bis(4-fluorophenyl)methyl)-3-(2-fluoropropan-2-yl)piperazin-1-yl)-5-methyl-6-oxo-5,6-dihydro-1,5-naphthyridine-2-carbonitrile] | 0.58 | 25 | 8.7 | – | 16 | – | – | 1.7 | –
11 | Cc1ccc(C(c2ccc(Cl)cc2)N2C[C@H](C)N(c3cc(=O)n(C)c4ccc(C#N)nc34)C[C@H]2C)cc1 (single isomer, unassigned) [Example 250] | 0.19 | 0.6 | 0.71 | 0.12 | 0.63 | – | – | – | –
12 | COc1ncccc1C(c1ccc(F)cc1)N1C[C@H](C)N(c2cc(=O)n(C)c3ccc(C#N)nc23)C[C@H]1C (single isomer, unassigned) [Example 210] | – | 14 | 1.1 | 0.13 | 0.26 | 0.12 | – | – | –
13 | C[C@@H]1CN(c2cc(=O)n(C)c3ccc(C#N)nc23)CCN1C(c1ccc(Cl)cc1)c1ccc(Cl)cc1 [Example 104, (R)-8-(4-(bis(4-chlorophenyl)methyl)-3-methylpiperazin-1-yl)-5-methyl-6-oxo-5,6-dihydro-1,5-naphthyridine-2-carbonitrile, dimethylformamide] | – | 4.4 | – | – | 4.4 | 0.56 | – | 0.18 | 6.5
14 | COC(=O)C1CN(c2c(Cl)c(=O)n(C)c3ccc(C#N)nc23)CCN1C(c1ccc(F)cc1)c1ccc(F)cc1 (single isomer, unassigned) [Example 77, methyl 1-(bis(4-fluorophenyl)methyl)-4-(3-chloro-6-cyano-1-methyl-2-oxo-1,2-dihydro-1,5-naphthyridin-4-yl)piperazine-2-carboxylate] | 3.3 | 81 | 1.7 | 10 | 240 | – | – | – | –
15 | C[C@@H]1CN(c2cc(=O)n(C)c3ccc(C#N)nc23)[C@@H](C)CN1Cc1ccc(F)c(F)c1 [Example 291, 8-[(2S,5R)-4-[(3,4-difluorophenyl)methyl]-2,5-dimethylpiperazin-1-yl]-5-methyl-6-oxo-5,6-dihydro-1,5-naphthyridine-2-carbonitrile] | – | 0.6 | – | – | 1.5 | 0.47 | – | 0.034 | 1.3
16 | CC(C)[C@@H]1CN(C(c2ccc(F)cc2)c2ccc(F)cc2)CCN1c1cc(=O)n(C)c2ccc(C#N)nc12 [Example 181, (R)-8-(4-(bis(4-fluorophenyl)methyl)-2-isopropylpiperazin-1-yl)-5-methyl-6-oxo-5,6-dihydro-1,5-naphthyridine-2-carbonitrile] | – | 240 | – | – | 240 | 10 | – | 10 | 20
17 | CC(c1ccc(F)cc1)N1C[C@H](C)N(c2cc(=O)n(C)c3ccc(C#N)nc23)C[C@H]1C (single isomer, unassigned) [Example 308] | – | 0.025 | – | 0.29 | 0.16 | 0.081 | – | – | 0.52
18 | Cn1c(=O)c(Cl)c(N2CCN(C(c3ccc(F)cc3)c3ccc(F)cc3)C(CO)C2)c2nc(C#N)ccc21 (single isomer, unassigned) [Example 100, 8-(4-(bis (4-fluorophenyl)methyl)-3-(hydroxymethyl)piperazin-1-yl)-7-chloro-5-methyl-6-oxo-5,6-dihydro-1,5-naphthyridine-2-carbonitrile] | – | 1.9 | – | – | 3.1 | 0.11 | – | 0.089 | 1.4
19 | Cn1c(=O)cc(N2CCN(C(c3ccc(F)cc3)c3ccc(F)cc3)C(C(=O)OC3CC3)C2)c2nc(C#N)ccc21 (single isomer, unassigned) [Example 107, cyclopropyl 1-(bis(4-fluorophenyl)methyl)-4-(6-cyano-1-methyl-2-oxo-1,2-dihydro-1,5-naphthyridin-4-yl)piperazine-2-carboxylate] | 0.75 | 40 | 11 | 0.027 | 0.2 | – | – | – | –
20 | C[C@@H]1CN(c2c(C#N)c(=O)n(C)c3ccc(C#N)nc23)[C@@H](C)CN1C(c1ccc(F)cc1)c1ccc(F)cc1 [Example 159, 8-((2S,5R)-4-(bis(4-fluorophenyl)methyl)-2,5-dimethylpiperazin-1-yl)-5-methyl-6-oxo-5,6-dihydro-1,5-naphthyridine-2,7-dicarbonitrile] | – | 2.8 | – | – | 0.96 | 0.14 | – | 0.035 | 1
